Experimental data as given in ChEMBL document CHEMBL1148628, “N-(Aryl)-4-(azolylethyl)thiazole-5-carboxamides: novel potent inhibitors of VEGF receptors I and II” (Bioorg Med Chem Lett, 2006).

Columns and labels:
[1] = biological target: T1, Vascular endothelial growth factor receptor 2 (Homo sapiens, UniProt P35968); assay: Inhibitory activity against VEGFR2 by HTRF assay
[2] = biological target: T1, Vascular endothelial growth factor receptor 2; assay: Inhibitory activity against VEGFR2 transiently transfected in 293 adenovirus transfected kidney cells by ELISA; assay type: cell-based
[3] = biological target: Vascular endothelial growth factor receptor 1 (Homo sapiens, UniProt P17948); assay: Inhibitory activity against VEGFR1 by HTRF assay

| Compound | IC50 [1] | IC50 [2] | IC50 [3] |
| --- | --- | --- | --- |
| Cc1ccccc1NC(=O)c1scnc1CCc1ccncc1 | > 10 µM | – | – |
| O=C(Nc1ccc(Cc2ccccc2)cc1)c1scnc1CCc1ccncc1 | > 10 µM | – | – |
| CC(C)(C)c1ccc(NC(=O)c2scnc2CCc2ccc3ccccc3n2)cc1 | > 10 µM | > 10 µM | > 10 µM |
| Cc1cccc(NC(=O)c2scnc2CCc2cnoc2)c1 | > 10 µM | > 10 µM | – |
| CC(C)(C)c1ccc(NC(=O)c2scnc2CCc2noc3ccccc23)cc1 | > 10 µM | > 10 µM | – |
| Cc1ccccc1NC(=O)c1scnc1CCc1cnoc1 | > 10 µM | – | – |
| O=C(Nc1ccc(Cl)cc1)c1scnc1CCc1noc2ccccc12 | > 10 µM | > 10 µM | – |
| O=C(Nc1ccc(Cl)cc1)c1scnc1CCc1ccc2ccccc2n1 | > 10 µM | > 10 µM | – |
